In article PMC8245078, “Development of novel benzofuran-isatin conjugates as potential antiproliferative agents with apoptosis inducing mechanism in Colon cancer” (Journal of Enzyme Inhibition and Medicinal Chemistry, 2021):
Read-outs that look alike come from different tables or passages of the source.

Assays:
Experiment in all cases: NCI single dose screening (10 µM)
Type in all cases: cell-based
HT-29 = details: Homo sapiens
SNB-19 = details: Homo sapiens
NCI-H460 = details: Homo sapiens
NCI-H23 = details: Homo sapiens
MALME-3M = details: Homo sapiens, read-out: GI% (cell growth inhibition percentage)
SN12C = details: Homo sapiens, read-out: GI% (cell growth inhibition percentage)
SF-295 = details: Homo sapiens
UO-31 = details: Homo sapiens
K-562 = details: Homo sapiens
MDA-MB-468 = details: Homo sapiens
PC-3 = details: Homo sapiens
NCI-H522 = details: Homo sapiens
MOLT-4 = details: Homo sapiens
ACHN = details: Homo sapiens, read-out: GI% (cell growth inhibition percentage)
M14 = details: Homo sapiens
SW-620 = details: Homo sapiens
U251 = details: Homo sapiens
CAKI-1 = details: Homo sapiens
HS 578 T = details: Homo sapiens, read-out: GI% (cell growth inhibition percentage)
EKVX = details: Homo sapiens, read-out: GI% (cell growth inhibition percentage)
HL-60(TB) = details: Homo sapiens
786-0 = details: Homo sapiens
HCC-2998 = details: Homo sapiens
SK-MEL-28 = details: Homo sapiens
NCI/ADR-RES = details: Homo sapiens, read-out: GI% (cell growth inhibition percentage)
CCRF-CEM = details: Homo sapiens, read-out: GI% (cell growth inhibition percentage)
HCT-15 = details: Homo sapiens
HCT-116 = details: Homo sapiens
DU-145 = details: Homo sapiens
TK-10 = details: Homo sapiens
A549/ATCC = details: Homo sapiens
T-47D = details: Homo sapiens, T47D, read-out: GI% (cell growth inhibition percentage)
[1] = Renal cancer, single dose 10^−5 M

`CCCN1C(=O)/C(=N\NC(=O)c2oc3ccccc3c2C)c2cc(Br)ccc21` [Compound 7g] gave an inhibition at 10 µM (HT-29; HT-29, read-out: GI% (cell growth inhibition percentage)) of under 10%, an inhibition at 10 µM (SNB-19; SNB-19, read-out: GI% (cell growth inhibition percentage)) of under 10% and an inhibition at 10 µM (NCI-H460; NCI-H460, read-out: GI% (cell growth inhibition percentage)) of under 10%. It also gave an inhibition at 10 µM (NCI-H23; NCI-H23, read-out: GI% (cell growth inhibition percentage)) of under 10%, an inhibition at 10 µM (MALME-3M; Malme-3M) of 16% and an inhibition at 10 µM (SN12C) of under 10%. The inhibition at 10 µM (SF-295; SF-295, read-out: GI% (cell growth inhibition percentage)) was under 10%, the inhibition at 10 µM (UO-31; UO-31, read-out: GI% (cell growth inhibition percentage)) was 21.9% and the inhibition at 10 µM (K-562; K562, read-out: GI% (cell growth inhibition percentage)) was under 10%. It also gave an inhibition at 10 µM (MDA-MB-468; MDA-MB-468, read-out: GI% (cell growth inhibition percentage)) of under 10%, an inhibition at 10 µM (PC-3; PC-3, read-out: GI% (cell growth inhibition percentage)) of under 10% and an inhibition at 10 µM (NCI-H522; NCI-H522, read-out: GI% (cell growth inhibition percentage)) of under 10%. It also gave an inhibition at 10 µM (MOLT-4; MOLT-4, read-out: GI% (cell growth inhibition percentage)) of under 10%, an inhibition at 10 µM (ACHN) of under 10% and an inhibition at 10 µM (M14; M14, read-out: GI% (cell growth inhibition percentage)) of under 10%. It also gave an inhibition at 10 µM (SW-620; SW-620, read-out: GI% (cell growth inhibition percentage)) of under 10%, an inhibition at 10 µM (U251; U-251, read-out: GI% (cell growth inhibition percentage)) of under 10% and an inhibition at 10 µM (CAKI-1; CAKI-1, read-out: GI% (cell growth inhibition percentage)) of 14.1%. It also gave an inhibition at 10 µM (HS 578 T; Hs-578T) of under 10%, an inhibition at 10 µM (EKVX) of 18.1% and an inhibition at 10 µM (HL-60(TB); HL-60, read-out: GI% (cell growth inhibition percentage)) of under 10%. For the same molecule, the inhibition at 10 µM (786-0; 786-0, read-out: GI% (cell growth inhibition percentage)) was under 10%, the inhibition at 10 µM (HCC-2998; HCC 2998, read-out: GI% (cell growth inhibition percentage)) was under 10% and the inhibition at 10 µM (SK-MEL-28; SK-MEL-28, read-out: GI% (cell growth inhibition percentage)) was under 10%. For the same molecule, the inhibition at 10 µM (NCI/ADR-RES) was under 10%, the inhibition at 10 µM (CCRF-CEM) was under 10% and the inhibition at 10 µM (HCT-15; HCT-15, read-out: GI% (cell growth inhibition percentage)) was under 10%. The inhibition at 10 µM (HCT-116; HCT-116, read-out: GI% (cell growth inhibition percentage)) was under 10%, the inhibition at 10 µM (DU-145; DU-145, read-out: GI% (cell growth inhibition percentage)) was under 10% and the inhibition at 10 µM (TK-10; TK-10, read-out: GI% (cell growth inhibition percentage)) was under 10%. For the same molecule, the inhibition at 10 µM (A549/ATCC; A549, read-out: GI% (cell growth inhibition percentage)) was under 10% and the inhibition at 10 µM (T-47D) was under 10%.

In the case of `Cc1c(C(=O)N/N=C2\C(=O)Nc3ccc(F)cc32)oc2ccccc12` [Compound 5b], the inhibition at 10 µM (HT-29; HT-29, Colon cancer, single dose 10^−5 M, read-out: GI% (cell growth inhibition percentage)) is reported as under 10%, the inhibition at 10 µM (SNB-19; SNB-19, CNS cancer, single dose 10^−5 M, read-out: GI% (cell growth inhibition percentage)) is reported as under 10% and the inhibition at 10 µM (NCI-H460; NCI-H460, Non-small cell lung cancer, single dose 10^−5 M, read-out: GI% (cell growth inhibition percentage)) is reported as under 10%. The inhibition at 10 µM (NCI-H23; NCI-H23, Non-small cell lung cancer, single dose 10^−5 M, read-out: GI% (cell growth inhibition percentage)) was under 10%, the inhibition at 10 µM (MALME-3M; MALME-3M, Melanoma, single dose 10^−5 M) was 12.4% and the inhibition at 10 µM (SN12C; [1]) was under 10%. For the same molecule, the inhibition at 10 µM (SF-295; SF-295, CNS cancer, single dose 10^−5 M, read-out: GI% (cell growth inhibition percentage)) was under 10%, the inhibition at 10 µM (UO-31; UO-31, Renal cancer, single dose 10^−5 M, read-out: GI% (cell growth inhibition percentage)) was 26.7% and the inhibition at 10 µM (K-562; K562, K-562, Leukaemia, single dose 10^−5 M, read-out: GI% (cell growth inhibition percentage)) was under 10%. It also gave an inhibition at 10 µM (MDA-MB-468; MDA-MB-468, Breast cancer, single dose 10^−5 M, read-out: GI% (cell growth inhibition percentage)) of under 10%, an inhibition at 10 µM (PC-3; PC-3, Prostate cancer, single dose 10^−5 M, read-out: GI% (cell growth inhibition percentage)) of under 10% and an inhibition at 10 µM (NCI-H522; NCI-H522, Non-small cell lung cancer, single dose 10^−5 M, read-out: GI% (cell growth inhibition percentage)) of 10.4%. It also gave an inhibition at 10 µM (MOLT-4; MOLT-4, Leukaemia, single dose 10^−5 M, read-out: GI% (cell growth inhibition percentage)) of under 10%, an inhibition at 10 µM (ACHN; [1]) of under 10% and an inhibition at 10 µM (M14; M14, Melanoma, single dose 10^−5 M, read-out: GI% (cell growth inhibition percentage)) of under 10%. For the same molecule, the inhibition at 10 µM (SW-620; SW-620, Colon cancer, single dose 10^−5 M, read-out: GI% (cell growth inhibition percentage)) was under 10%, the inhibition at 10 µM (U251; U-251, U251, CNS cancer, single dose 10^−5 M, read-out: GI% (cell growth inhibition percentage)) was under 10% and the inhibition at 10 µM (CAKI-1; CAKI-1, Renal cancer, single dose 10^−5 M, read-out: GI% (cell growth inhibition percentage)) was 19.5%. The inhibition at 10 µM (HS 578 T; HS 578 T, Breast cancer, single dose 10^−5 M) was under 10%, the inhibition at 10 µM (EKVX; Non-small cell lung cancer, single dose 10^−5 M) was 29.6% and the inhibition at 10 µM (HL-60(TB); HL-60(TB), Leukaemia, single dose 10^−5 M, read-out: GI% (cell growth inhibition percentage)) was under 10%. The inhibition at 10 µM (786-0; 786-0, Renal cancer, single dose 10^−5 M, read-out: GI% (cell growth inhibition percentage)) was under 10%, the inhibition at 10 µM (HCC-2998; HCC-2998, Colon cancer, single dose 10^−5 M, read-out: GI% (cell growth inhibition percentage)) was under 10% and the inhibition at 10 µM (SK-MEL-28; SK-MEL-28, Melanoma, single dose 10^−5 M, read-out: GI% (cell growth inhibition percentage)) was under 10%. For the same molecule, the inhibition at 10 µM (NCI/ADR-RES; Ovarian cancer, single dose 10^−5 M) was under 10%, the inhibition at 10 µM (CCRF-CEM; Leukaemia, single dose 10^−5 M) was under 10% and the inhibition at 10 µM (HCT-15; HCT-15, Colon cancer, single dose 10^−5 M, read-out: GI% (cell growth inhibition percentage)) was under 10%. The inhibition at 10 µM (HCT-116; HCT-116, Colon cancer, single dose 10^−5 M, read-out: GI% (cell growth inhibition percentage)) was under 10%, the inhibition at 10 µM (DU-145; DU-145, Prostate cancer, single dose 10^−5 M, read-out: GI% (cell growth inhibition percentage)) was under 10% and the inhibition at 10 µM (TK-10; TK-10, Renal cancer, single dose 10^−5 M, read-out: GI% (cell growth inhibition percentage)) was under 10%. It also gave an inhibition at 10 µM (A549/ATCC; A549/ATCC, Non-small cell lung cancer, single dose 10^−5 M, read-out: GI% (cell growth inhibition percentage)) of under 10% and an inhibition at 10 µM (T-47D; T-47D, Breast cancer, single dose 10^−5 M) of under 10%.
